The assay addresses T1, human recombinant Yes [a.a. 2–543 (end)] (Homo sapiens, UniProt P07947).
T1 construct: human recombinant Yes [a.a; 2–543 (end)]; purchased BPS Bioscience 40488
Put plainly: ADP-Glo kinase assay, inhibition rates of Yes phosphorylation activity (first and second screening). The format is biochemical. The conditions noted are these: first screening; mean of n = 4 wells; 10 μmol L−1 compound. How it is done: All inhibitory assays of the phosphorylation activity of Yes were performed in accordance with the Promega Technical Manual for the ADP-Glo™ Kinase Assay (Fitchburg, WI, USA. Catalog number: V9102). The human recombinant Yes [a.a. 2–543 (end)] was purchased from BPS Bioscience (catalog number: 40488). The details of the assay protocol and reagent information are given elsewhere.
The screening was conducted in three steps consisting of the first screening, the second screening, and the IC50 determination, as can be illustrated in Fig. 1b. First, we determined the inhibition rates of the 1,991 compounds. Each compound was placed in 4 wells of a 384-well plate. In total, 80 compounds were assayed on one plate and the other wells were used for positive and negative controls. The compounds were randomly placed on plates so that compounds proposed by one group were not placed on a plate together. A mean of four inhibition rates for each compound was compared to criteria for the first screening. […] Second, the inhibition rates of the screened compounds were determined on one plate using the same procedure of the first screening, where compounds were dissolved from fresh powder. […] Screened compounds were then evaluated for their IC50 values.
(ADP-Glo turns the ADP formed in a reaction into a luminescent signal.)
T1 sequence (P07947 2-543): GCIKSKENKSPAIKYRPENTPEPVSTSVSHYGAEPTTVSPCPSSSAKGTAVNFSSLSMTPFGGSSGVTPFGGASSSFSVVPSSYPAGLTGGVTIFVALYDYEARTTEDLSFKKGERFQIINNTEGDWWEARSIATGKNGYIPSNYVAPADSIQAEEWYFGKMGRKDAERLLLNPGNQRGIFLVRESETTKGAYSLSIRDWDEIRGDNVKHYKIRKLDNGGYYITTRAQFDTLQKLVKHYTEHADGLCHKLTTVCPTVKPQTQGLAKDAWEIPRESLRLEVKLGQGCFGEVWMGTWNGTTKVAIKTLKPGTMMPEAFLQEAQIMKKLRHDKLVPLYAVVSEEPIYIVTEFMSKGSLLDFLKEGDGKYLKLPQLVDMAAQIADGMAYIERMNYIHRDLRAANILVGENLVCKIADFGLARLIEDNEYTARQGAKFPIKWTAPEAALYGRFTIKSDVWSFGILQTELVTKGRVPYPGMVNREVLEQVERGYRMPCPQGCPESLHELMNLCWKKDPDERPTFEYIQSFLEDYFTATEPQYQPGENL
Consider `COc1cc(Cl)c(C)cc1NC(=O)CN(Cc1ccco1)S(=O)(=O)c1cccc(Cl)c1` [Compound Z25969255], for which the “First screening IR (inhibition rate)” value amounted to 38%.
With `O=[N+]([O-])c1cc2c(c(CN(Cc3ccccc3)S(=O)(=O)c3cccc(C(F)(F)F)c3)c1)OCOC2` [Compound Z25980301], the “First screening IR (inhibition rate)” value is reported as 7%.
Consider `C=CCN(Cc1nnc(-c2ccc(Cl)cc2)o1)S(=O)(=O)c1ccc(NC(C)=O)cc1` [Compound Z26082391], for which the “First screening IR (inhibition rate)” value is 3%.
The value for `C=CCN(CC(=O)Nc1cccc(C#N)c1)S(=O)(=O)c1ccccc1F` [Compound Z26091205] was 3%.
In the case of `Cc1ccc(C)c(S(=O)(=O)N(CC(=O)Nc2ccc(Oc3ccccc3)cc2)Cc2ccc(F)cc2)c1` [Compound Z26125608], the “First screening IR (inhibition rate)” value is -6%.
Next, `COc1ccc(C(N)=O)c(OCc2nc3ccccc3nc2C)c1` [Compound Z26325749]: 35%.
Next, `Cc1cccc(OCC(=O)Nc2sc3c(c2C(N)=O)CCC3)c1` [Compound Z26345967]: 18%; `COc1cc(C(=O)Nc2c(C)cccc2C(C)C)ccc1OCc1c(C)noc1C` [Compound Z26400530]: 1%.
Consider `Cc1ccc(-c2nn(-c3ccc(F)cc3)cc2C(=O)N(C)CC(=O)Nc2ccc(N3CCOCC3)cc2)cc1` [Compound Z26593504], for which the “First screening IR (inhibition rate)” value came out at 46%.
The value for `Cc1cccc(-c2nn(-c3ccccc3)cc2C(=O)N(C)CC(=O)Nc2ccc(N3CCOCC3)cc2)c1` [Compound Z26593505] was 2%.
As to `COc1ccc(C(CNC(=O)c2ccc3c(c2)NC(=O)C(C)S3)N(C)C)cc1` (centres unmarked) [Compound Z26596638], the “First screening IR (inhibition rate)” value was found to be 27%.
In the case of `O=C(c1cn(Cc2ccccc2)nc1-c1cccnc1)N1CCN(c2ccccn2)CC1` [Compound Z26735071], the “First screening IR (inhibition rate)” value came out at 21%.
Next, `O=C(CN(Cc1ccccc1)S(=O)(=O)c1ccc(Cl)cc1)N1CCN(c2ccccn2)CC1` [Compound Z26735553]: 16%; `O=C(NCc1nc2ccccc2[nH]1)c1ccc(OCc2ccccc2)cc1` [Compound Z26780414]: 5%.
In the case of `O=C(COc1ccccc1)NCc1nc2ccccc2[nH]1` [Compound Z26782031], the “First screening IR (inhibition rate)” value is on record as -12%.
Next, `O=C(Nc1ccc2[nH]c(=O)[nH]c2c1)c1cc2c(s1)-c1ccccc1CC2` [Compound Z26792816]: 4%.
Regarding `NC(=O)Nc1ccc(C(=O)NCCC(c2ccccc2)c2ccccc2)cc1` [Compound Z26815125], the “First screening IR (inhibition rate)” value was -8%.
The value for `Cc1cccc(N2CCN(C(=O)C3CCN(C(=O)C4CC4)CC3)CC2)c1C` [Compound Z26849648] was -2%.
The value for `CNS(=O)(=O)c1cc(C(=O)N2CCN(Cc3cc(OC)ccc3OC)CC2)ccc1Cl` [Compound Z26970092] was 28%; that for `CN(CC(=O)Nc1cccc(F)c1)C(=O)c1cc2ccccc2cc1O` [Compound Z26987740] was 21%.
Next, `O=C(Nc1ccccc1OC(F)F)c1ccc2c(c1)C(=O)N(Cc1ccncc1)C2=O` [Compound Z27081729]: 20%; `O=C(Cc1cn2ccsc2n1)NCCN1C(=O)S/C(=C/c2cccnc2)C1=O` [Compound Z27116942]: 12%; `N#Cc1ccccc1S(=O)(=O)N1CCN(C(=O)/C=C/c2ccc3c(c2)OCCCO3)CC1` [Compound Z27234574]: 36%.
`Cc1cccc(NC(=O)CNC(=O)c2cn3c(C)cccc3n2)c1C` [Compound Z27271554]: the “First screening IR (inhibition rate)” value was 3%.
The value for `Cc1cc(OCC(=O)NC(C)c2ccc(-n3ccnc3)cc2)ccc1C(C)C` (centres unmarked) [Compound Z27305591] was -7%.
Next, `COc1cc(C(=O)NC(C)c2ccc(-n3ccnc3)cc2)cc(Cl)c1OC(C)C` (centres unmarked) [Compound Z27306302]: 7%; `CC(NC(=O)C(NC(=O)c1ccco1)C(C)C)c1ccc(-n2ccnc2)cc1` (centres unmarked) [Compound Z27306758]: 4%; `Cc1ccc(C(C)C)c(OCC(=O)NC(C)c2ccc(-n3ccnc3)cc2)c1` (centres unmarked) [Compound Z27307326]: 11%.
For `CCc1ccccc1NC(=O)CNC(=O)c1cc2ccccc2[nH]1` [Compound Z27562098], the “First screening IR (inhibition rate)” value was found to be 48%.
For the molecule `CCOc1ccc(-n2c(O)c3ccc(C(=O)N=C4N=c5ccccc5=N4)cc3c2O)cc1` [Compound Z27664836], the “First screening IR (inhibition rate)” value is -4%.
Next, `O=C(Nc1nc2ccccc2[nH]1)c1ccc(N2CCCC2=O)cc1` [Compound Z27664887]: 8%; `CC(=O)c1cccc(OCC(=O)Nc2nc3ccccc3[nH]2)c1` [Compound Z27665121]: -6%; `O=C(COc1ccc2ccccc2c1)Nc1nc2ccccc2[nH]1` [Compound Z27666510]: 8%.
Next, `COc1ccc2c(c1)c(CC(=O)N1CCN(Cc3ccccc3)CC1)c(C)n2C(=O)c1ccc(Cl)cc1` [Compound Z27764077]: 10%; `Cc1ccc(C)c(N2C(=O)c3ccc(C(=O)Nc4ccc(N5CCN(C)CC5)cc4C)cc3C2=O)c1` [Compound Z27972425]: 8%; `COc1ccc(CN2C(=O)c3ccccc3C2=O)cc1C(=O)Nc1ccc(N2CCN(C)CC2)cc1C` [Compound Z27972767]: 17%.
Next, `COc1ccc(-c2cc(C(=O)Nc3ccc(N4CCN(C)CC4)cc3C)c3ccccc3n2)cc1OC` [Compound Z27974061]: 3%; `Cc1nn(Cc2ccc(F)cc2)c2sc(C(=O)Nc3ccc(N4CCOCC4)cc3N3CCOCC3)cc12` [Compound Z28027525]: 3%.
Regarding `O=C(Nc1ccc(N2CCOCC2)cc1N1CCOCC1)c1ccc(N2C(=O)CCC2=O)cc1` [Compound Z28028679], the “First screening IR (inhibition rate)” value is recorded as -4%.
Consider `Cc1ccc(-n2nc(C)c3c(C(=O)Nc4nc(CN5CCOCC5)cs4)cc(-c4ccccc4)nc32)cc1` [Compound Z28032810], for which the “First screening IR (inhibition rate)” value was -1%.
Next, `Cc1cc(C)c(NC(=O)c2cn3c4c(c(N5CCN(C)CC5)c(F)cc4c2=O)OCC3C)c(C)c1` (centres unmarked) [Compound Z28129480]: 9%.
On to `Cc1nc2ccc(NC(=O)c3cc4ccccc4oc3=O)cc2s1` [Compound Z28296849], for which the “First screening IR (inhibition rate)” value was found to be 13%.
`CCOc1ccc(CCNC(=O)c2cc3ccccc3[nH]2)cc1OCC` [Compound Z28450151]: the “First screening IR (inhibition rate)” value was -5%.
The value for `CN1CCC(N(C)S(=O)(=O)c2ccc(NC(=O)Cc3ccc(F)cc3)cc2)CC1` [Compound Z28459327] was 13%; that for `Cc1c(C(=O)Nc2ccnn2C2CCCC2)oc2c(Cl)cccc12` [Compound Z28468306] was 0%.
Next, `CC(NC(=O)CCc1nc2ccccc2c(=O)[nH]1)c1cccc(C(F)(F)F)c1` (centres unmarked) [Compound Z28541828]: -5%.
Regarding `CC(NC(=O)c1ccc2nc[nH]c2c1)c1ccc(F)c(F)c1` (centres unmarked) [Compound Z28547957], the “First screening IR (inhibition rate)” value is -1%.
The value for `O=C(Nc1nnc(SCc2ccc(F)cc2)s1)c1cccnc1Cl` [Compound Z28653555] was 3%; that for `N#Cc1ccc(C(=O)Nc2nc(-c3ccc(F)c(F)c3)cs2)cc1` [Compound Z28714833] was 16%.
In the case of `CCC(NC(=O)c1cc2c(cc1Cl)N1CCCCCC1=NS2(=O)=O)c1ccc(C)cc1` (centres unmarked) [Compound Z28877665], the “First screening IR (inhibition rate)” value is 2%.
For `O=C(Cc1ccc(F)cc1)N1CCN(S(=O)(=O)Cc2ccccc2)CC1` [Compound Z28905033], the “First screening IR (inhibition rate)” value is -2%.
The value for `CCCn1c(NC(=O)c2ccc3c(c2)NC(=O)C(C)S3)nc2ccccc21` (centres unmarked) [Compound Z29076459] was 51%.
As for `N#Cc1ccsc1NC(=O)CCCSc1nc2ccccc2[nH]1` [Compound Z29082077], the “First screening IR (inhibition rate)” value is 16%.
Next, `CCN(CC)CCn1c(NC(=O)c2cc3c(C)nn(-c4ccc(Cl)cc4)c3s2)nc2ccccc21` [Compound Z29249972]: -12%.
Regarding `CCN(c1ccccc1)S(=O)(=O)c1ccc(C(=O)Nc2ccc(S(=O)(=O)N(C)C)cc2)cc1` [Compound Z29267150], the “First screening IR (inhibition rate)” value is given as 2%.
Next, `Cc1cnc(NC(=O)CCCc2nc3ccccc3c(=O)[nH]2)s1` [Compound Z29324663]: 9%.
The value for `Cc1nn(CC(C)C)c2sc(C(=O)Nc3nc(-c4ccccn4)cs3)cc12` [Compound Z29467100] was 0%; that for `CC(C)(C)C1CCC(C(=O)Nc2nc(-c3ccccn3)cs2)CC1` (centres unmarked) [Compound Z29467784] was 7%.
Next, `COc1cccc2cc(C(=O)N3CCN(S(=O)(=O)c4ccccc4C(F)(F)F)CC3)c(=O)oc12` [Compound Z29531247]: 18%.

Source of the values: article PMC5607274, “An iterative compound screening contest method for identifying target protein inhibitors using the tyrosine-protein kinase Yes” (Scientific Reports, 2017).
